Reference: patent publication EP4631969A1, “PEPTIDE FOR CARTILAGE REGENERATION, AND USES THEREOF” (Caregen Co., Ltd., priority 2022, dated 2024)
Where no end group is shown, it is not given here.

System: Human Adipose-Derived Mesenchymal Stem Cells (AD-MSC)
Test: Confirmation of cytotoxicity (CCK-8 activity test and SRB staining)
Format: cell-based
Conditions: about 1 to 200 µg/ml, 7 days of culture; for cytotoxicity: CCK-8; for change in cell morphology: SRB staining, microscope
Method: Human Adipose-Derived Mesenchymal Stem Cells (AD-MSC) were treated with Peptide-1 or Peptide-2 to determine whether they were cytotoxic.
Specifically, AD-MSCs were seeded in 96-well plates at a concentration of about 1.5 x 10^3 cells/well and cultured in DMEM medium (about 10 % FBS + DMEM medium) for about 24 hours. […] After 7 days of culture, about 1/10 of the culture medium was treated with a CCK-8 (Dojindo, CCK-8 kit) solution and cultured for about 2 hours. After incubation, the culture medium was sampled and the absorbance was measured at a wavelength of about 450 nm using a microplate reader. After measuring the absorbance, the medium in the culture medium in the 96-well plate was removed, and about 60 µl of 3.7 % formalin was added to the 96-well plate to fix the cells for about 1 minute. After cell fixation, the formalin was removed, and about 70 ul of SRB staining solution (about 0.2 g of Sulforhodamine B sodium salt (sigma, S9012) dissolved in about 100 ml of double-distilled water) was added to the fixed cells, and the cells were stained by culturing overnight at room temperature in a lightblocking condition. After cell staining, the cells were washed with about 1 % acetic acid and dried. The dried cells were observed under a microscope. As control groups, an experimental group (CON) that was not treated with the above peptide and an experimental group (CM) treated with a solution containing about 100 nM dexamethasone, about 50 µM ascorbic acid, about 40 µM proline, about 10 ng/ml TGFβ1, and 1X ITS instead of the above peptide were used.

Substance	cytotoxicity	change in cell morphology
STGALSTSFTEE [Peptide-1, STGALSTSFTEE]	no cytotoxicity was caused	no change in cell morphology occurred at all concentrations
HHEQF [Peptide-2, HHEQF]	no cytotoxicity was caused	no change in cell morphology occurred at all concentrations
